In patent US20260144798A1, “Disruption of Vascular Smooth Muscle Relaxation by Carfilzomib May be the Primary Reason for CFZ-Induced Vascular Dysfunction” (AMGEN INC., priority 2019, published 2026):
Like-named read-outs stand apart in the source and are kept apart here.

Legend:
rat aortic rings [1] = test: Acetylcholine-induced relaxation of phenylephrine-precontracted rat aortic rings; conditions: for prevention of CFZ induced vascular dysfunction in the presence of ACh: inhibitor 10 mins before 2.7 μM CFZ for 1 hour, 1 μM Phenylephrine precontraction (FIG. 8A, 9A); for EC50 for ACh-induced relaxation, CFZ in combination with PDE5 inhibitor: PDE5 inhibitor 30 nM, 10-minute pre-treatment before CFZ, CFZ alone 7.3×10^−8, vehicle alone 1.9×10^−8 (FIG. 5B)
Experimental: (§3) For assessment of the effect of CFZ on vascular relaxation, the pre-treated aortic rings were incubated with 1 μM PE for 20 minutes to induce contraction. For experiments involving sildenafil and tadalafil, a 10-minute pre-treatment with 30 nM of these smooth muscle relaxants was done prior to the incubation with CFZ. After reaching a stable contraction, ACh, sodium nitroprusside (SNP), nifedipine, riociguat, or cinaciguat was added to the chamber at an increasing concentration from 100 pM to 10 μM; each stepwise concentration increase was added after the response to the current concentration reached a plateau. The relaxation was continuously measured and plotted as percent relaxation normalized to the response with 1 μM PE.
(§4) Aortas were isolated from 8-10 week old CD® (Sprague Dawley) rats (from Charles River Laboratories) in an ice-cold, oxygenated (95% O2, 5% CO2) Krebs-Henseleit buffer. The aortas were then carefully cleaned to remove perivascular fat and cut into 2-mm rings that were mounted between two stainless steel wires in the myograph chamber containing 8 mL of Krebs-Henseleit buffer in 95% O2 and 5% CO2 at 37° C. Rings were stretch until a final stretch of 10 mN (Newton) was reached and incubated for 30 mins for equilibration.

rat aortic rings [2] = test: Sodium nitroprusside-induced relaxation of phenylephrine-precontracted rat aortic rings; conditions: for prevention of CFZ induced vascular dysfunction in the presence of SNP: inhibitor 10 mins before 2.7 μM CFZ for 1 hour, 1 μM Phenylephrine precontraction (FIG. 8B, 9B)
Experimental: as §3, §4

rat aortic rings [3] = test: Angiotensin induced contraction (AUC) of rat aortic rings; conditions: inhibitor 10 mins before 2.7 μM CFZ 1.5 hour; 30 nM Angiotensin (FIG. 11)
Experimental: Aortas were isolated from 8-10 week old CD® (Sprague Dawley) rats (from Charles River Laboratories) in an ice-cold, oxygenated (95% O2, 5% CO2) Krebs-Henseleit buffer. The aortas were then carefully cleaned to remove perivascular fat and cut into 2-mm rings that were mounted between two stainless steel wires in the myograph chamber containing 8 mL of Krebs-Henseleit buffer in 95% O2 and 5% CO2 at 37° C. Rings were stretch until a final stretch of 10 mN (Newton) was reached and incubated for 30 mins for equilibration. The rings were constricted with 8 mL of 80 mM KPSS for 15 minutes, followed by 3 washes with the Krebs-Henseleit buffer until the force returned to the baseline stretch. The aorta were then treated for one of the following experiments: • For protein expression studies the aortic rings were pre-treated with 100 μM N(gamma)-nitro-L-arginine methyl ester (L-NAME; Sigma-Aldrich) and 10 μM indomethacin for 10 minutes prior to the pre-incubation with CFZ (Amgen Inc.) for 1.5 hours.
Following the two incubation the rings were treated with either vehicle or 2.7 μM CFZ for further 1.5 hours before addition of 30 nM Angiotensin for 30 min. Angiotensin induced transient contraction which returned to the baseline in 30 mins. Area Under the Curve (AUC) of angiotensin induced contraction was measured.
Aortic rings were incubated for 10 min with 100 μM LNAME+10 μM indomethacin (endothelium derived relaxing agents blockers) for 10 mins followed by addition of 10 μM SB 203580 (p38 inhibitor) or PF3644022 (MAPKAPK-2 inhibitor) in some rings for 10 more mins as indicated. This was followed by addition of 2.7 μM CFZ in some rings as indicated for 1.5 hour. 30 nM Angiotensin was added for 30 min. Angiotensin induced transient contraction which returned to the baseline in 30 mins.

rat aortic rings [4] = test: Basal vascular tone of isolated rat aortic rings, isometric myograph; conditions: 10 μM SB 203580 10 mins before 2.7 μM CFZ for 3 hour; LNAME+indomethacin (FIG. 10)
Experimental: (§1) An isometric myograph (DMT 620M) was used for ex vivo measurement of vascular function. Eight-to 10-week old Sprague Dawley rats (purchased from Charles River Laboratories, Wilmington, MA) were first anesthetized with 3% isoflurane and then euthanized using inhaled desflurane. The aortas were isolated in an ice-cold, oxygenated (95% O2, 5% CO2) Krebs-Henseleit buffer (118.3 mM NaCl, 4.7 mM KCl, 1.2 mM MgSO4, 1.2 mM KH2PO4, 2.5 mM CaCl2, 25 mM NaHCO3, and 11.0 mM glucose; purchased from Sigma-Aldrich, St. Louis, MO). The thoracic aorta was carefully cleaned to remove perivascular fat and cut into 2-mm rings that were mounted between two stainless steel wires in the myograph chamber containing 8 mL of Krebs-Henseleit buffer in 95% O2 and 5% CO2 at 37° C. First, the rings were equilibrated in the chamber for 20 minutes, followed by a gradual increase of mechanical stretch until a final stretch of 10 mN (Newton) was reached. After an additional incubation with fresh buffer for 30 minutes, the rings were constricted with 8 mL of 80 mM KPSS (43 mM NaCl, 80 mM KCl, 2.5 mM CaCl2, 1.2 mM MgSO4, 1.2 mM KH2PO4, 25.0 mM NaHCO3, and 11.0 mM glucose) for 15 to 20 minutes, followed by 3 washes with the Krebs-Henseleit buffer until the force returned to the baseline stretch. The tension of the aortic rings was continuously measured with the Lab Chart 7 data acquisition system (ADInstruments, Colorado Springs, CO). In Some of the experiments the aortic rings were pre-treated with 100 μM N(gamma)-nitro-L-arginine methyl ester (L-NAME; Sigma-Aldrich) and 10 μM indomethacin for 10 minutes prior to the pre-incubation with CFZ (Amgen Inc.) for 2 hours. After an additional incubation with fresh buffer for 30 minutes, the rings were constricted with 8 mL of 80 mM KPSS (43 mM NaCl, 80 mM KCl, 2.5 mM CaCl2, 1.2 mM MgSO4, 1.2 mM KH2PO4, 25.0 mM NaHCO3, and 11.0 mM glucose) for 15 to 20 minutes, followed by 3 washes with the Krebs-Henseleit buffer until the force returned to the baseline stretch. The tension of the aortic rings was continuously measured with the Lab Chart 7 data acquisition system (ADInstruments, Colorado Springs, CO).
To assess the effect of CFZ on vascular contraction, the aortic rings were pre-treated with or without CFZ for 2 hours, followed by treatment with an increasing concentration of phenylephrine (PE) from 10 nM to 1 μM. After the maximum contraction was achieved, the aortic rings were washed 3 times until the force returned to baseline. The contraction was continuously measured and plotted as percent contraction normalized to the response of KPSS. […] The relaxation was continuously measured and plotted as percent relaxation normalized to the response with 1 μM PE. […]

rat aortic rings [5] = test: Nifedipine-induced relaxation of rat aortic rings; conditions: increasing concentration of nifedipine (FIG. 2C)
Experimental: An isometric myograph (DMT 620M) was used for ex vivo measurement of vascular function. Eight-to 10-week old Sprague Dawley rats (purchased from Charles River Laboratories, Wilmington, MA) were first anesthetized with 3% isoflurane and then euthanized using inhaled desflurane. The aortas were isolated in an ice-cold, oxygenated (95% O2, 5% CO2) Krebs-Henseleit buffer (118.3 mM NaCl, 4.7 mM KCl, 1.2 mM MgSO4, 1.2 mM KH2PO4, 2.5 mM CaCl2, 25 mM NaHCO3, and 11.0 mM glucose; purchased from Sigma-Aldrich, St. Louis, MO). […] The tension of the aortic rings was continuously measured with the Lab Chart 7 data acquisition system (ADInstruments, Colorado Springs, CO). […]
(§2) To assess the effect of CFZ on vascular contraction, the aortic rings were pre-treated with or without CFZ for 2 hours, followed by treatment with an increasing concentration of phenylephrine (PE) from 10 nM to 1 μM. […] The contraction was continuously measured and plotted as percent contraction normalized to the response of KPSS. […] The relaxation was continuously measured and plotted as percent relaxation normalized to the response with 1 μM PE.

rat aortic rings [6] = test: sGC activator (cinaciguat, riociguat)-induced relaxation of rat aortic rings; conditions: Rattus norvegicus
Experimental: as §1, with “In Some of the experiments the aortic rings were pre-treated with 100 μM N(gamma)-nitro-L-arginine methyl ester (L-NAME; Sigma-Aldrich) and 10 μM indomethacin for 10 minutes prior to the pre-incubation with CFZ (Amgen Inc.) for 2 hours. After an additional incubation with fresh buffer for 30 minutes, the rings were constricted with 8 mL of 80 mM KPSS (43 mM NaCl, 80 mM KCl, 2.5 mM CaCl2, 1.2 mM MgSO4, 1.2 mM KH2PO4, 25.0 mM NaHCO3, and 11.0 mM glucose) for 15 to 20 minutes, followed by 3 washes with the Krebs-Henseleit buffer until the force returned to the baseline stretch.” left out
as §2

Compound	prevention of CFZ induced vascular dysfunction in the presence of ACh (rat aortic rings [1])	prevention of CFZ induced vascular dysfunction in the presence of SNP (rat aortic rings [2])	prevention of CFZ-increased angiotensin induced contraction (rat aortic rings [3])	EC50 for ACh-induced relaxation, CFZ in combination with PDE5 inhibitor (rat aortic rings [1])	also measured
Cc1ccc(-c2ccc3c(ccc4sc5c(c43)NC[C@@H](C)NC5=O)n2)cn1 [PF3644022]	prevented CFZ induced vascular dysfunction	prevented CFZ induced vascular dysfunction	prevented	–	–
C[S+]([O-])c1ccc(-c2nc(-c3ccncc3)c(-c3ccc(F)cc3)[nH]2)cc1 (centres unmarked) [SB203580]	prevented CFZ induced vascular dysfunction	prevented CFZ induced vascular dysfunction	prevented	–	prevention of CFZ induced increase in vascular tone (rat aortic rings [4]): completely prevented
COC(=O)C1=C(C)NC(C)=C(C(=O)OC)C1c1ccccc1[N+](=O)[O-] [nifedipine]	–	–	–	–	plateau of vascular relaxation (rat aortic rings [5]): around 50%
COC(=O)N(C)c1c(N)nc(-c2nn(Cc3ccccc3F)c3ncccc23)nc1N [riociguat]	–	–	–	–	EC50 (rat aortic rings [6]; rings pre-incubated with CFZ (FIG. 4C), read-out: EC50 for relaxation, sGC activator with CFZ): 0.017 µM; EC50 (rat aortic rings [6]; without CFZ (FIG. 4C), read-out: EC50 for relaxation, sGC activator alone): 0.018 µM
CCCc1nn(C)c2c(=O)[nH]c(-c3cc(S(=O)(=O)N4CCN(C)CC4)ccc3OCC)nc12 [sildenafil]	–	–	–	2.8×10^−8	reversal of CFZ effect on VSM relaxation in the presence of ACh (rat aortic rings [1]; 30 nM pre-treatment 10 minutes before CFZ (FIG. 5B)): reversed the CFZ effect on VSM relaxation; reversal of CFZ effect on VSM relaxation in the presence of SNP (rat aortic rings [2]; 30 nM pre-treatment 10 minutes before CFZ (FIG. 5A)): reversed the CFZ effect on VSM relaxation
CN1CC(=O)N2[C@H](c3ccc4c(c3)OCO4)c3[nH]c4ccccc4c3C[C@@H]2C1=O [tadalafil]	–	–	–	2.8×10^−8	–
